Columns and labels:
ducksalad = assay: Test B flooded paddy test; assay type: in vivo, Heteranthera limosa; conditions: Heteranthera limosa, 360 h, 250 g ai/ha, applied to paddy water at 2-leaf stage, visual rating after 13 to 15 d, scale 0 (no effect) to 100 (complete control), read-out: Plant response rating, Ducksalad, Flood
Procedure, shortened: (§1)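 Pots were flooded to 3 cm above the soil at treatment, and compounds were applied directly into the paddy water. That depth was held throughout. After 13 to 15 d in a greenhouse, plants were rated visually against untreated controls.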

waterhemp = assay: Test C postemergence; assay type: in vivo, Amaranthus rudis
From the text: (§2) Seeds of plant species selected from blackgrass (Alopecurus myosuroides), ryegrass, Italian (Italian ryegrass, Lolium multiflorum), wheat (winter wheat, Triticum aestivum), galium (catchweed bedstraw, Galium aparine), corn (Zea mays), crabgrass, large (large crabgrass, Digitaria sanguinalis), foxtail, giant, (giant foxtail, Setaria faberii), johnsongrass (Sorghum halepense), lambsquarters (Chenopodium album), morningglory (Ipomoea coccinea), nutsedge, yellow (yellow nutsedge, Cyperus esculentus), pigweed (Amaranthus retroflexus), ragweed (common ragweed, Ambrosia elatior), soybean (Glycine max), barnyardgrass (Echinochloa crus-galli), oilseed rape (Brassica napus), waterhemp (common waterhemp, Amaranthus rudis), and velvetleaf (Abutilon theophrasti) were planted into a blend of loam soil and sand and treated preemergence with test chemicals formulated in a non-phytotoxic solvent mixture which included a surfactant. At the same time, plants selected from these crop and weed species and also chickweed (common chickweed, Stellaria media), oat, wild (wild oat, Avena fatua), and kochia (Kochia scoparia), were planted in pots containing Sunshine Redi-Earth® planting medium comprising spaghnum peat moss, vermiculite, starter nutrients and dolomitic limestone and treated with postemergence applications of test chemicals formulated in the same manner. Plants ranged in height from 2 to 18 cm (1- to 4-leaf stage) for postemergence treatments. […] A dash (-) response means no test result.

corn [1] = assay: Test A postemergence; assay type: in vivo, Zea mays; conditions: Zea mays, post-emergence, 240 h, 0 to 100 scale (0 no effect, 100 complete control), approx. 10 d
Procedure, shortened: (§3)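 Test chemicals in a non-phytotoxic solvent with surfactant were applied as a directed soil spray preemergence to seeds sown in loam/sand. Postemergence sprays went to plants 2–10 cm tall at the one- to two-leaf stage. A dash means no result.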

wheat = assay: Test A postemergence; assay type: in vivo, Triticum aestivum; conditions: Triticum aestivum, post-emergence, 240 h, 0 to 100 scale (0 no effect, 100 complete control), approx. 10 d, read-out: Plant response rating, Wheat
Procedure, shortened: as §3

foxtail, giant [2] = assay: Test A postemergence; assay type: in vivo, Setaria faberii; conditions: Setaria faberi, post-emergence, 240 h, 0 to 100 scale (0 no effect, 100 complete control), approx. 10 d, read-out: Plant response rating, Foxtail, Giant
Procedure, shortened: as §3

kochia = assay: Test C postemergence; assay type: in vivo, Kochia scoparia
From the text: as §2

barnyardgrass [3] = assay: Test C postemergence; assay type: in vivo, Echinochloa crus-galli
From the text: as §2

oilseed rape = assay: Test C postemergence; assay type: in vivo, Brassica napus
From the text: as §2

ragweed = assay: Test C postemergence; assay type: in vivo, Ambrosia elatior
From the text: as §2

barnyardgrass [4] = assay: Test A preemergence; assay type: in vivo, Echinochloa crus-galli; conditions: Echinochloa crus-galli, pre-emergence, 240 h, 0 to 100 scale (0 no effect, 100 complete control), read-out: Plant response rating, Barnyardgrass
Procedure, shortened: as §3

sedge, umbrella = assay: Test B flooded paddy test; assay type: in vivo, Cyperus difformis; conditions: Cyperus difformis, 360 h, 250 g ai/ha, applied to paddy water at 2-leaf stage, visual rating after 13 to 15 d, scale 0 (no effect) to 100 (complete control), read-out: Plant response rating, Sedge, Umbrella, Flood
Procedure, shortened: as §1

ryegrass, Italian = assay: Test C postemergence; assay type: in vivo, Lolium multiflorum
From the text: as §2

barnyardgrass [5] = assay: Test B flooded paddy test; assay type: in vivo, Echinochloa crus-galli; conditions: Echinochloa crus-galli, 360 h, 250 g ai/ha, applied to paddy water at 2-leaf stage, visual rating after 13 to 15 d, scale 0 (no effect) to 100 (complete control), read-out: Plant response rating, Barnyardgrass, Flood
Procedure, shortened: as §1

pigweed = assay: Test A postemergence; assay type: in vivo, Amaranthus retroflexus; conditions: Amaranthus retroflexus, post-emergence, 240 h, 0 to 100 scale (0 no effect, 100 complete control), approx. 10 d, read-out: Plant response rating, Pigweed
Procedure, shortened: as §3

corn [6] = assay: Test C postemergence; assay type: in vivo, Zea mays
From the text: as §2

nutsedge, yellow = assay: Test C postemergence; assay type: in vivo, Cyperus esculentus
From the text: as §2

morningglory = assay: Test C postemergence; assay type: in vivo, Ipomoea coccinea
From the text: as §2

velvetleaf = assay: Test C postemergence; assay type: in vivo, Abutilon theophrasti
From the text: as §2

barnyardgrass [7] = assay: Test A postemergence; assay type: in vivo, Echinochloa crus-galli; conditions: Echinochloa crus-galli, post-emergence, 240 h, 0 to 100 scale (0 no effect, 100 complete control), approx. 10 d, read-out: Plant response rating, Barnyardgrass
Procedure, shortened: as §3

crabgrass, large = assay: Test C postemergence; assay type: in vivo, Digitaria sanguinalis
From the text: as §2

foxtail, giant [8] = assay: Test C postemergence; assay type: in vivo, Setaria faberii
From the text: as §2

CCCc1nc(-c2ccc(F)cc2)nn1Cc1ccnc(C(F)(F)F)c1 [Compound 6, 4-[[3-(4-fluorophenyl)-5-propyl-1H-1,2,4-triazol-1-yl]methyl]-2-(trifluoromethyl)pyridine]
pest or weed control at 250 g/ha (ducksalad): 70% | Plant response rating (scale of 0 to 100 where 0 is no effect and 100 is complete control) (waterhemp; 31 g ai/ha): 80 | Plant response rating (scale of 0 to 100 where 0 is no effect and 100 is complete control) (waterhemp; 62 g ai/ha): 80 | Plant response rating (scale of 0 to 100 where 0 is no effect and 100 is complete control) (waterhemp; 125 g ai/ha): 80 | Plant response rating (scale of 0 to 100 where 0 is no effect and 100 is complete control) (waterhemp; 250 g ai/ha): 85 | Corn plant response rating (crop injury, 0 = no effect, 100 = complete kill) at 125 g/ha (corn [1]; 125 g ai/ha): 40% | Corn plant response rating (crop injury, 0 = no effect, 100 = complete kill) at 500 g/ha (corn [1]; 500 g ai/ha): 70% | plant injury at 125 g/ha (wheat; 125 g ai/ha): 40% | plant injury at 500 g/ha (wheat; 500 g ai/ha): 70% | pest or weed control at 125 g/ha (foxtail, giant [2]; 125 g ai/ha): 90% | pest or weed control at 500 g/ha (foxtail, giant [2]; 500 g ai/ha): 90% | Plant response rating (scale of 0 to 100 where 0 is no effect and 100 is complete control) (kochia; 31 g ai/ha): 90 | Plant response rating (scale of 0 to 100 where 0 is no effect and 100 is complete control) (kochia; 62 g ai/ha): 90 | Plant response rating (scale of 0 to 100 where 0 is no effect and 100 is complete control) (kochia; 125 g ai/ha): 90 | Plant response rating (scale of 0 to 100 where 0 is no effect and 100 is complete control) (kochia; 250 g ai/ha): 90 | Plant response rating (scale of 0 to 100 where 0 is no effect and 100 is complete control) (barnyardgrass [3]; 31 g ai/ha): 20 | Plant response rating (scale of 0 to 100 where 0 is no effect and 100 is complete control) (barnyardgrass [3]; 62 g ai/ha): 20 | Plant response rating (scale of 0 to 100 where 0 is no effect and 100 is complete control) (barnyardgrass [3]; 125 g ai/ha): 25 | Plant response rating (scale of 0 to 100 where 0 is no effect and 100 is complete control) (barnyardgrass [3]; 250 g ai/ha): 40 | Plant response rating (scale of 0 to 100 where 0 is no effect and 100 is complete control) (oilseed rape; Oilsee Rape, 250 g ai/ha): 95 | Plant response rating (scale of 0 to 100 where 0 is no effect and 100 is complete control) (oilseed rape; Oilseed Rape, 31 g ai/ha): 55 | Plant response rating (scale of 0 to 100 where 0 is no effect and 100 is complete control) (oilseed rape; Oilseed Rape, 62 g ai/ha): 55 | Plant response rating (scale of 0 to 100 where 0 is no effect and 100 is complete control) (oilseed rape; Oilseed Rape, 125 g ai/ha): 95 | Plant response rating (scale of 0 to 100 where 0 is no effect and 100 is complete control) (ragweed; 31 g ai/ha): 75 | Plant response rating (scale of 0 to 100 where 0 is no effect and 100 is complete control) (ragweed; 62 g ai/ha): 75 | Plant response rating (scale of 0 to 100 where 0 is no effect and 100 is complete control) (ragweed; 250 g ai/ha): 80 | pest or weed control at 125 g/ha (barnyardgrass [4]; 125 g ai/ha): 80% | pest or weed control at 500 g/ha (barnyardgrass [4]; 500 g ai/ha, approx. 10 d): 100% | pest or weed control at 250 g/ha (sedge, umbrella): 80% | Plant response rating (scale of 0 to 100 where 0 is no effect and 100 is complete control) (ryegrass, Italian; 31 g ai/ha): 5 | Plant response rating (scale of 0 to 100 where 0 is no effect and 100 is complete control) (ryegrass, Italian; 62 g ai/ha): 5 | Plant response rating (scale of 0 to 100 where 0 is no effect and 100 is complete control) (ryegrass, Italian; 125 g ai/ha): 5 | Plant response rating (scale of 0 to 100 where 0 is no effect and 100 is complete control) (ryegrass, Italian; 250 g ai/ha): 10 | pest or weed control at 250 g/ha (barnyardgrass [5]): 40% | pest or weed control at 125 g/ha (pigweed; 125 g ai/ha): 50% | pest or weed control at 500 g/ha (pigweed; 500 g ai/ha): 100% | Plant response rating (scale of 0 to 100 where 0 is no effect and 100 is complete control) (corn [6]; 31 g ai/ha): 10 | Plant response rating (scale of 0 to 100 where 0 is no effect and 100 is complete control) (corn [6]; 62 g ai/ha): 15 | Plant response rating (scale of 0 to 100 where 0 is no effect and 100 is complete control) (corn [6]; 125 g ai/ha): 20 | Plant response rating (scale of 0 to 100 where 0 is no effect and 100 is complete control) (corn [6]; 250 g ai/ha): 50 | Plant response rating (scale of 0 to 100 where 0 is no effect and 100 is complete control) (nutsedge, yellow; 31 g ai/ha): 5 | Plant response rating (scale of 0 to 100 where 0 is no effect and 100 is complete control) (nutsedge, yellow; 62 g ai/ha): 5 | Plant response rating (scale of 0 to 100 where 0 is no effect and 100 is complete control) (nutsedge, yellow; 125 g ai/ha): 5 | Plant response rating (scale of 0 to 100 where 0 is no effect and 100 is complete control) (nutsedge, yellow; 250 g ai/ha): 5 | Plant response rating (scale of 0 to 100 where 0 is no effect and 100 is complete control) (morningglory; 31 g ai/ha): 90 | Plant response rating (scale of 0 to 100 where 0 is no effect and 100 is complete control) (morningglory; 62 g ai/ha): 95 | Plant response rating (scale of 0 to 100 where 0 is no effect and 100 is complete control) (morningglory; 125 g ai/ha): 98 | Plant response rating (scale of 0 to 100 where 0 is no effect and 100 is complete control) (velvetleaf; 31 g ai/ha): 55 | Plant response rating (scale of 0 to 100 where 0 is no effect and 100 is complete control) (velvetleaf; 62 g ai/ha): 55 | Plant response rating (scale of 0 to 100 where 0 is no effect and 100 is complete control) (velvetleaf; 125 g ai/ha): 55 | Plant response rating (scale of 0 to 100 where 0 is no effect and 100 is complete control) (velvetleaf; 250 g ai/ha): 55 | pest or weed control at 125 g/ha (barnyardgrass [7]; 125 g ai/ha): 80% | pest or weed control at 500 g/ha (barnyardgrass [7]; 500 g ai/ha): 90% | Plant response rating (scale of 0 to 100 where 0 is no effect and 100 is complete control) (crabgrass, large; 31 g ai/ha): 10 | Plant response rating (scale of 0 to 100 where 0 is no effect and 100 is complete control) (crabgrass, large; 62 g ai/ha): 15 | Plant response rating (scale of 0 to 100 where 0 is no effect and 100 is complete control) (crabgrass, large; 125 g ai/ha): 25 | Plant response rating (scale of 0 to 100 where 0 is no effect and 100 is complete control) (crabgrass, large; 250 g ai/ha): 65 | Plant response rating (scale of 0 to 100 where 0 is no effect and 100 is complete control) (foxtail, giant [8]; 31 g ai/ha): 40 | Plant response rating (scale of 0 to 100 where 0 is no effect and 100 is complete control) (foxtail, giant [8]; 62 g ai/ha): 40 | Plant response rating (scale of 0 to 100 where 0 is no effect and 100 is complete control) (foxtail, giant [8]; 125 g ai/ha): 45 | Plant response rating (scale of 0 to 100 where 0 is no effect and 100 is complete control) (foxtail, giant [8]; 250 g ai/ha): 75

From patent publication US10681909B2, “Herbicidal triazoles” (FMC Corporation, priority 2014, dated 2020)
